Paper PMC3395220 (Journal of Medicinal Chemistry, 2012)
Where two headings read alike, the source gives them in different places.

How the values were obtained:
HOP-92 = type: cell-based, human; conditions: 10^Δ2-x, relative to compound 2
SR = type: cell-based, human; conditions: 10^Δ2-x, relative to compound 2
MDA-MB-435 = type: cell-based, human; conditions: 10^Δ2-x, relative to compound 2
Plasma pharmacokinetics = type: in vivo, CD-1 mice; conditions: mice, iv 18 mg/kg
CAKI-1 = type: cell-based, human; conditions: 10^Δ2-x, relative to compound 2
RPMI-8226 = type: cell-based, human; conditions: 10^Δ2-x, relative to compound 2
MDA-MB-468 = type: cell-based, human; conditions: 10^Δ2-x, relative to compound 2
RXF 393 = type: cell-based, human; conditions: 10^Δ2-x, relative to compound 2
SF-295 = type: cell-based, human; conditions: 10^Δ2-x, relative to compound 2
OVCAR-8 = type: cell-based, human; conditions: 10^Δ2-x, relative to compound 2
HOP-62 = type: cell-based, human; conditions: 10^Δ2-x, relative to compound 2
OVCAR-5 = type: cell-based, human; conditions: 10^Δ2-x, relative to compound 2
[1] = system: panel of 12 tumor cell lines implanted in mice; test: NCI hollow fiber assay; type: in vivo
SK-OV-3 = type: cell-based, human; conditions: 10^Δ2-x, relative to compound 2
OVCAR-3 = type: cell-based, human; conditions: 10^Δ2-x, relative to compound 2
HL-60(TB) = type: cell-based, human; conditions: 10^Δ2-x, relative to compound 2
MCF7 = type: cell-based, human; conditions: 10^Δ2-x, relative to compound 2
CCRF-CEM = type: cell-based, human; conditions: 10^Δ2-x, relative to compound 2
DU-145 = type: cell-based, human; conditions: 10^Δ2-x, relative to compound 2
NCI-H23 = type: cell-based, human; conditions: 10^Δ2-x, relative to compound 2
M14 = type: cell-based, human; conditions: 10^Δ2-x, relative to compound 2
NCI-H522 = type: cell-based, human; conditions: 10^Δ2-x, relative to compound 2
MOLT-4 = type: cell-based, human; conditions: 10^Δ2-x, relative to compound 2
HCC-2998 = type: cell-based, human; conditions: 10^Δ2-x, relative to compound 2
LOX IMVI = type: cell-based, human; conditions: 10^Δ2-x, relative to compound 2
U251 = type: cell-based, human; conditions: 10^Δ2-x, relative to compound 2
EKVX = type: cell-based, human; conditions: 10^Δ2-x, relative to compound 2
UACC-62 = type: cell-based, human; conditions: 10^Δ2-x, relative to compound 2
SK-MEL2 = type: cell-based, human; conditions: 10^Δ2-x, relative to compound 2
KM12 = type: cell-based, human; conditions: 10^Δ2-x, relative to compound 2
ACHN = type: cell-based, human; conditions: 10^Δ2-x, relative to compound 2
HS578T = type: cell-based, human; conditions: 10^Δ2-x, relative to compound 2
IGROV1 = type: cell-based, human; conditions: 10^Δ2-x, relative to compound 2
MDA-MB-231/ATCC = type: cell-based, human; conditions: 10^Δ2-x, relative to compound 2
K-562 = type: cell-based, human; conditions: 10^Δ2-x, relative to compound 2
UACC-257 = type: cell-based, human; conditions: 10^Δ2-x, relative to compound 2
[2] = system: COLO-205 (colon), A549 (non-small cell lung) and BXCP3 (pancreas); test: cells; type: cell-based; conditions: 72 h, read-out: average GI50 (50% of growth inhibition)
[3] = system: EWS-FLI1 transcription factor; conditions: compared to 1, as opposed to a non-specific promoter; cited from earlier work
UO-31 = type: cell-based, human; conditions: 10^Δ2-x, relative to compound 2
OVCAR-4 = type: cell-based, human; conditions: 10^Δ2-x, relative to compound 2
SNB-19 = type: cell-based, human; conditions: 10^Δ2-x, relative to compound 2
COLO 205 = type: cell-based, human; conditions: 10^Δ2-x, relative to compound 2
NCI/ADR-RES = test: cells; type: cell-based, human
60 cancer cell lines = test: cells; type: cell-based, human; conditions: for GI50: Homo sapiens
786-0 = type: cell-based, human; conditions: 10^Δ2-x, relative to compound 2
HCT-116 = type: cell-based, human; conditions: 10^Δ2-x, relative to compound 2
A549/ATCCC = type: cell-based, human; conditions: 10^Δ2-x, relative to compound 2
PC-3 = type: cell-based, human; conditions: 10^Δ2-x, relative to compound 2
TK-10 = type: cell-based, human; conditions: 10^Δ2-x, relative to compound 2
SK-MEL28 = type: cell-based, human; conditions: 10^Δ2-x, relative to compound 2
[4] = Tolerability during xenograft treatment; type: in vivo, athymic nu/nu mice; conditions: iv q2dx10 10 mg/Kg and q3dx10 20 mg/Kg, colon and melanoma models
SK-MEL-5 = type: cell-based, human; conditions: 10^Δ2-x, relative to compound 2

SMILES: CO[C@@H]([C@@H]1Cc2cc3cc(O[C@H]4C[C@@H](O[C@H]5C[C@@H](O)[C@H](O)[C@@H](C)O5)[C@H](O)[C@@H](C)O4)c(C)c(O)c3c(O)c2C(=O)[C@H]1O[C@H]1C[C@@H](O[C@H]2C[C@@H](O[C@H]3C[C@H](O)[C@H](O)[C@@H](C)O3)[C@H](O)[C@@H](C)O2)[C@H](O)[C@@H](C)O1)[C@@H](O)C(C)=O [Compound 9, demycarosyl-3D-β-D-digitoxosyl-mithramycin SK]
- activity improvement factor (HOP-92): 1.11
- activity improvement factor (SR): 1.11
- activity improvement factor (MDA-MB-435): 1.82
- plasma level (Plasma pharmacokinetics; after 30 min): ~1,7 μM
- plasma level (Plasma pharmacokinetics; after 120 min): below 0,1 μM
- activity improvement factor (CAKI-1): 1.64
- activity improvement factor (RPMI-8226): 0.73
- activity improvement factor (MDA-MB-468): 1.48
- activity improvement factor (RXF 393): 0.86
- activity improvement factor (SF-295): 2.00
- activity improvement factor (OVCAR-8): 1.51
- activity improvement factor (HOP-62): 2.26
- activity improvement factor (OVCAR-5): 1.97
- hollow fiber assay total score ([1]; 12 tumor cell lines, daily ip for four days): 66/96
- hollow fiber assay intraperitoneal score ([1]; intraperitoneal implants): 36/48
- hollow fiber assay subcutaneous score ([1]; subcutaneous implants): 30/48
- activity improvement factor (SK-OV-3): 3.85
- activity improvement factor (OVCAR-3): 3.51
- activity improvement factor (HL-60(TB)): 2.24
- activity improvement factor (MCF7): 0.92
- activity improvement factor (CCRF-CEM): 1.14
- activity improvement factor (DU-145): 4.47
- activity improvement factor (NCI-H23): 1.86
- activity improvement factor (M14): 2.19
- activity improvement factor (NCI-H522): 0.79
- activity improvement factor (MOLT-4): 2.43
- activity improvement factor (HCC-2998): 3.76
- activity improvement factor (LOX IMVI): 1.23
- activity improvement factor (U251): 1.26
- activity improvement factor (EKVX): 1.60
- activity improvement factor (UACC-62): 1.02
- activity improvement factor (SK-MEL2): 1.23
- activity improvement factor (KM12): 1.66
- activity improvement factor (ACHN): 4.47
- activity improvement factor (HS578T): 1.76
- activity improvement factor (IGROV1): 7.16
- activity improvement factor (MDA-MB-231/ATCC): 2.75
- activity improvement factor (K-562): 1.40
- activity improvement factor (UACC-257): 1.66
- GI50 [2]: 300 to 1300 nM
- inhibition of luciferase activity driven by NRB01 [3]: inhibits more effectively
- activity improvement factor (UO-31): 2.40
- activity improvement factor (OVCAR-4): 3.76
- activity improvement factor (SNB-19): 1.55
- activity improvement factor (COLO 205): 2.26
- activity improvement factor (NCI/ADR-RES; 10^Δ2-x, relative to compound 2): 0.15
- GI50 (NCI/ADR-RES; Homo sapiens): > 10000 nM
- GI50 (60 cancer cell lines; read-out: Mean GI50): 30 nM
- GI50 (60 cancer cell lines; read-out: Mean log(GI50) (converted)): 30.2 nM
- fold more active than 10, in average (60 cancer cell lines; NCI-60 GI50): about 5 fold
- activity improvement factor (786-0): 1.88
- activity improvement factor (HCT-116): 1.17
- activity improvement factor (A549/ATCCC): 2.04
- activity improvement factor (PC-3): 4.62
- activity improvement factor (TK-10): 2.45
- activity improvement factor (SK-MEL28): 1.46
- tolerability in xenograft-bearing mice [4]: well tolerated and no signs of toxicity or deaths
- activity improvement factor (SK-MEL-5): 1.62
